Results taken from patent publication US20210253518A1, “KINASE INHIBITOR” (NISSAN CHEMICAL CORPORATION, priority 2018, published 2021).

How the values were obtained:
[1] = test system: YAP-regulated genes; assay: DNA microarray gene expression in SKOV3 cells; assay type: cell-based, human; details: 10 μM
Experimental: According to the method of patent document (WO 2014/017513), a composition of McCoy's 5a medium (manufactured by Sigma-Aldrich) containing 0.015% (w/v) deacylated gellan gum (KELCOGEL CG-LA, manufactured by Sansho Co., Ltd.), 30 ng/mL human HB-EGF (manufactured by PEPROTECH), and 15% (v/v) FBS was prepared. Human ovarian cancer cell line SKOV3 cultured according to the protocol recommended by DS Pharma Biomedical Co., Ltd. was suspended in the medium and seeded on a 6 well plate (manufactured by Corning Incorporated, #3471) at 1,000,000 cells/3.3 mL/well. Successively, k-1:B-1 dissolved in DMSO was added to the cell suspension at a final concentration of 10 μM. After further culturing in a CO2 incubator at 37° C. for 6 or 24 hr, 11 mL of phosphate buffered saline (PBS, manufactured by Sigma-Aldrich Japan) was added to the cell culture medium and the cells were precipitated by a centrifugation treatment (400 G, 3 min). The supernatant was removed, the cells were suspended in PBS (10 mL), and further subjected to a centrifugation treatment (400 G, 5 min) to give cell pellets. Successively, total RNA (ribonucleic acid) was isolated from the obtained cells by using RNAeasy Mini Kit (manufactured by Qiagen). DNA microarray of this RNA was performed by HumanGene 2.0ST Array (manufactured by Affymetrix), and changes in the human gene expression due to the addition of the specific compound were comprehensively analyzed (gene analysis contract service of Kurabo Industries Ltd. was used, product number; GA0312).

[2] = test system: mouse partial liver resection model; assay: Liver weight increase in mouse partial liver resection model; assay type: in vivo; details: 10 mg/kg intraperitoneally 4 times every 24 hr, about 30% of the liver removed, FIG. 2
Experimental: A partial liver resection model in which the mouse liver was partially resected was prepared as described below, and the liver weight increasing effect of the specific compound was evaluated by comparing the liver weight immediately after the resection with the liver weight 3 days after the resection.
A 0.5 w/v % methylcellulose aqueous solution (0.5% MC, manufactured by FUJIFILM Wako Pure Chemical Corporation) and k-1:B-1, k-1:J-1 were evaluated. k-1:B-1 and k-1:J-1 were suspended in 0.5% MC, and prepared at a final concentration of 1 mg/mL.
Mice, BALB/cAnNCrlCrlj, 5-week-old, male, were purchased from Charles River Laboratories, Japan. In terms of the 0.5% MC administration control group, 0.5% MC 10 mL/kg was administered intraperitoneally once, and 24 hr later, the entire liver was isolated and the liver weight was measured (n=5). […] After that, the abdomen was closed, and 24 hr after the final administration, the entire liver was removed and the liver weight was measured (n=4). In terms of the k-1:B-1 or k-1:J-1 administration-control group, k-1:B-1 or k-1:J-1 10 mg/kg, 10 mL/kg, was intraperitoneally administered once, and 24 hr later, the entire liver was isolated and the liver weight was measured (n=5). […] After that, the abdomen was closed, and 24 hr after the final administration, the entire liver was removed and the liver weight was measured (n=5).

Compound | AMOTL2 expression rate when no addition is 1 ([1]; 6 hr later) | ANKRD1 expression rate when no addition is 1 ([1]; 6 hr later) | BIRC2 expression rate when no addition is 1 ([1]; 6 hr later) | CCND1 expression rate when no addition is 1 ([1]; 6 hr later) | CTGF expression rate when no addition is 1 ([1]; 6 hr later) | CYR61 expression rate when no addition is 1 ([1]; 6 hr later) | TGFB2 expression rate when no addition is 1 ([1]; 6 hr later) | AMOTL2 expression rate when no addition is 1 ([1]; 24 hr later) | ANKRD1 expression rate when no addition is 1 ([1]; 24 hr later) | BIRC2 expression rate when no addition is 1 ([1]; 24 hr later) | CCND1 expression rate when no addition is 1 ([1]; 24 hr later) | CTGF expression rate when no addition is 1 ([1]; 24 hr later) | CYR61 expression rate when no addition is 1 ([1]; 24 hr later) | TGFB2 expression rate when no addition is 1 ([1]; 24 hr later) | liver weight ratio after partial liver resection [2]
CC/C(=N\NC(=O)C(C)Nc1ccccc1)c1ccc(O)c(C)c1O (stereo not shown) [k-1:B-1] | 6.92 | 35.3 | 1.27 | 1.63 | 21.4 | 29.6 | 3.63 | 7.89 | 72.1 | 1.44 | 2.01 | 23.2 | 26.9 | 9.84 | promoting recovery of the liver weight after excision
CC/C(=N\NC(=O)NCc1cccc(O)c1)c1ccc(O)c(C)c1O [k-1:J-1] |  |  |  |  |  |  |  |  |  |  |  |  |  |  | promoting recovery of the liver weight after excision
